The text below walks through data of PMC6272914, “Bio-Guided Isolation of Methanol-Soluble Metabolites of Common Spruce (Picea abies) Bark by-Products and Investigation of Their Dermo-Cosmetic Properties” (Molecules, 2016).

This experiment addresses collagenase from Clostridium histolyticum. Briefly: fluorogenic MMP2 substrate collagenase inhibition assay. Type of experiment: biochemical, Hathewaya histolytica.

The compound `O=C1c2c(O)cc(O)cc2O[C@H](c2ccc(O)c(O[C@@H]3O[C@H](CO)[C@@H](O)[C@H](O)[C@H]3O)c2)[C@H]1O` [compound 9, taxifolin-3′-O-glucoside] showed an IC50 of 141 µM.
Compound `OC[C@H]1O[C@@H](Oc2cc(O)cc(/C=C/c3ccc(O)c(O)c3)c2)[C@H](O)[C@@H](O)[C@@H]1O` [compound 8, E-astringin] displayed an IC50 of 125 µM. This IC50 and that of the compound before are within 1.5-fold of each other.
With `O=C1c2c(O)cc(O)cc2O[C@H](c2ccc(O)c(O)c2)[C@H]1O` [compound 4, taxifolin], it took 193 µM to reach half-maximal inhibition (IC50).
In the case of `CC(C)C[C@H](NP(=O)(O)O[C@@H]1O[C@@H](C)[C@H](O)[C@@H](O)[C@H]1O)C(=O)N[C@@H](Cc1c[nH]c2ccccc12)C(=O)O` [PRMD, phosphoramidon, reference compound], the IC50 was found to be 6.9 µM.
The value for `OC[C@H]1O[C@@H](Oc2cc(O)cc(/C=C/c3ccc(O)cc3)c2)[C@H](O)[C@@H](O)[C@@H]1O` [compound 6, E-piceid] was 259 µM.
